Laboratory results: patent US8563552B2, “Whitening agent and skin external preparation” (Shiseido Company Ltd., priority 2008, dated 2013)

The compounds below were run on Mouse B16 melanoma cells (assay: Melanin production inhibition test). Details: 72 h; mouse B16 melanoma cells, three days after addition; minimum non-cytotoxic final concentration at which ratio of melanin amount was 80% or less; read-out: Inhibitory effect on melanin production.
Assay type: cell-based
Method: A test for melanin production inhibition by the compounds of the formula (1) was conducted. The test method is as follows.
Melanin Production Inhibition Test
(1) Inoculation of Cells and Addition of Test Substances
Mouse B16 melanoma cells were inoculated in a six well plate at 100,000 cells/well. The next day, test substance solutions (solvent: DMSO) were added.
(2) Cell Proliferation Test
Three days after the addition of the test substance solution, the medium was removed by aspiration. Then 1 ml of EMEM medium containing 10% Alamar Blue solution was added, and a reaction was allowed to proceed at 37° C. After 30 minutes, 100 μL of the reaction mixture was transferred to a 96 well plate and fluorescence was measured at an excitation wavelength of 544 nm and a measurement wavelength of 590 nm. Using the value thus measured as a relative value of cell count, a ratio of the cell count (% cell count) of the test substance-added group to the test substance-absent group (group in which only the solvent was added) was calculated. The higher the % cell count, the lower the cytotoxicity. It was determined that a compound having the % cell count of 80% or more was non-cytotoxic, and that a compound having the % cell count of less than 80% was cytotoxic.
(3) Quantification of Melanin
The cells after the cell proliferation test were washed with PBS three times, and then lysed by addition of 200 μL of 1M NaOH to measure an absorbance at 475 nm. Using the value thus measured as a: value of the melanin amount, a ratio of the melanin amount (%) of the test substance-added group to the test substance-absent group (group in which only the solvent was added) was calculated. The lower the ratio of the melanin amount, the higher the melanin production-inhibitory effect. […] The inhibitory effect on melanin production was evaluated according to the following criteria.
⊚: the minimum concentration for inhibition of melanin production was 1 ppm or less.
◯: the minimum concentration for inhibition of melanin production was more than 1 ppm and 10 ppm or less.

`Cc1cc(C)nc(-n2nc(C)cc2N)n1` [Compound 1] and `Cc1cc(C)nc(-n2nc(C)cc2O)n1` [Compound 11] cannot be ordered by minimal effective concentration: no more than 1 µg/mL for the first, 1 to 10 µg/mL for the second.

`Cc1cc(N2CCOCC2)nc(-n2nc(C)cc2C)n1` [Compound 2] and `Cc1cc(N2CCOCC2)nc(-n2nc(C)c(C)c2C)n1` [Compound 20] cannot be ordered by minimal effective concentration: no more than 1 µg/mL for the first, no more than 1 µg/mL for the second.

`Cc1cc(N)n(-c2ncccn2)n1` [Compound 3] and `Cc1cc(C)n(-c2ncccn2)n1` [Compound 4, 1-(pyrimidin-2-yl)-3,5-dimethylpyrazole] cannot be ordered by minimal effective concentration: 1 to 10 µg/mL for the first, no more than 1 µg/mL for the second.

`Cc1cc(S)nc(-n2nc(C)cc2C)n1` [Compound 6] and `CNc1cc(C)nc(-n2nc(C)cc2C)n1` [Compound 7] cannot be ordered by minimal effective concentration: no more than 1 µg/mL for the first, no more than 1 µg/mL for the second.

`CCc1c(C)nn(-c2nc(C)cc(C)n2)c1O` [Compound 8] and `Cc1cc(C)nc(-n2nccc2C)n1` [Compound 17] cannot be ordered by minimal effective concentration: no more than 1 µg/mL for the first, no more than 1 µg/mL for the second.

`Cc1cc(C)nc(-n2cccn2)n1` [Compound 12, 2-(pyrazol-1-yl)-4,6-dimethylpyrimidine] and `Cc1cc(C)nc(-n2ccc(C)n2)n1` [Compound 18] cannot be ordered by minimal effective concentration: 1 to 10 µg/mL for the first, no more than 1 µg/mL for the second.

`COc1cc(OC)nc(-n2nc(C)cc2C)n1` [Compound 13] and `Cc1cc(N(C)C)nc(-n2nc(C)cc2C)n1` [Compound 14] cannot be ordered by minimal effective concentration: no more than 1 µg/mL for the first, no more than 1 µg/mL for the second.

`CCc1cnc(-n2nc(C)cc2C)nc1` [Compound 21, 1-(5-ethylpyrimidin-2-yl)-3,5-dimethylpyrazole] and `Cc1ccnc(-n2nc(C)cc2C)n1` [Compound 22, 1-(4-methylpyrimidin-2-yl)-3,5-dimethylpyrazole] cannot be ordered by minimal effective concentration: no more than 1 µg/mL for the first, no more than 1 µg/mL for the second.

`Cc1cnn(-c2nc(C)cc(C)n2)c1` [Compound 23] and `Cc1cn(-c2nc(C)cc(C)n2)cn1` [Compound 42] cannot be ordered by minimal effective concentration: no more than 1 µg/mL for the first, no more than 1 µg/mL for the second.

`Cc1cc(C)nc(-n2ncc3c2/C(=C/c2ccc(Cl)cc2)CC3)n1` [Compound 30] and `Cc1cc(C)nc(-n2ccnc2C)n1` [Compound 41] cannot be ordered by minimal effective concentration: no more than 1 µg/mL for the first, no more than 1 µg/mL for the second.

`Cc1cc(C)n(-c2ccccc2)n1` [Compound 33, 1-phenyl-3,5-dimethylpyrazole] and `Cc1cccc(-n2nc(C)cc2C)c1` [Compound 36] cannot be ordered by minimal effective concentration: 1 to 10 µg/mL for the first, no more than 1 µg/mL for the second.

`Cc1cc(C)n(-c2ccc(C)c(C)c2)n1` [Compound 34] and `Cc1cc(C)cc(-n2nc(C)cc2C)c1` [Compound 35] cannot be ordered by minimal effective concentration: no more than 1 µg/mL for the first, no more than 1 µg/mL for the second.

`Cc1ccnc(-n2nc(C)cc2C)c1` [Compound 40, 1-(4-methylpyridin-2-yl)-3,5-dimethylpyrazole] and `Cc1cc(C)nc(N2CC(C)CC(C)C2)n1` (centres unmarked) [Compound 45, N-(4,6-dimethylpyrimidin-2-yl)-3,5-dimethylpiperidine] fall in the same range of minimal effective concentration: 1 to 10 µg/mL for the first, 1 to 10 µg/mL for the second.

Same assay, conditions: minimum concentration at which an inhibitory effect on melanin production was significantly exhibited in melanoma B16 cells

For `OC[C@H]1O[C@@H](Oc2ccc(O)cc2)[C@H](O)[C@@H](O)[C@@H]1O` [Arbutin, 4-hydroxyphenyl-β-D-glucopyranoside, reference compound], the “Minimum concentration (%)” value was 5 × 10^−4%.
In the case of `CNc1cc(C)nc(-n2nc(C)cc2C)n1` [Compound 7], the “Minimum concentration (%)” value is reported as 3 × 10^−6%.
`Cc1cc(N(C)C)nc(-n2nc(C)cc2C)n1` [Compound 14] was tested, and the “Minimum concentration (%)” value was 3 × 10^−6%.
